Results from article PMC5770433, “A new group of synthetic phenolic-containing amphiphilic molecules for multipurpose applications: Physico-chemical characterization and cell-toxicity study” (Scientific Reports, 2018).
Values joined by “and” are separate entries in the source; they are usually repeats but may differ in a detail not shown here. Equal values may be shown once.

Assays:
[1] = Creaming stability (creaming index) of 30% fish oil-in-water emulsions; assay type: physicochemical; details: 30% fish oil-in-water emulsion, storage at 5 °C, 7 days
Method: (§1) The synthetic compounds were evaluated as emulsifiers for fish oil-in-water emulsions and compared to commercial DATEM. Emulsions consisting of 30.0% fish oil were prepared using 1.5 mL (0.1 M) of emulsifier solutions in phosphate buffer (pH 7.0). Coarse emulsions were first created by homogenization of lipid and aqueous phases (PRO250, PRO Scientific, Oxford, USA) at high speed for two minutes at room temperature. Further reduction particle size was achieved by use of a probe sonicator (Branson sonifier 250, Branson ultrasonics, Danbury, US) for a period of 3 min.
To examine their creaming stability, duplicate emulsions were transferred to clear, screw-capped 15 mL vials (diameter 1.8 cm) and stored at 5 °C. By aid of daily digital photographs, the phase separation in each emulsion was monitored over 7 days. The extent of creaming was characterized by the creaming index (CI) according to Equation (2), where HA is the height of the lower, aqueous phase, and HE is the total height of emulsion[30]).1 %CI=HA/HE×100

[2] = Lipid oxidation in fish oil-in-water emulsions (TBARS assay); details: relative to emulsions with commercial DATEM, after 7 days (1 week) of storage
Method: as §1
The ability of the new emulsifiers to inhibit lipid oxidation in emulsions was evaluated using Thiobarbituric acid-reactive species (TBARS) assay. TBARS were used to measure the formation of malondialdehyde, a major product of lipid oxidation, in emulsions after one week of storage. A solution of TCA-TBA-HCl was prepared by mixing 15 g of TCA, 375 mg TBA, 1.76 ml 12 N HCl, and 82.9 ml water. […] of this solution was mixed with 20 µl of the emulsion sample previously in 1 ml of distilled water. Thereafter, the mixture was heated at 100 °C for 15 min, cooled to room temperature within 10 min under a running tap water, and centrifuged at 2000×g for 15 min[22]. TBA formed colored complexes with the secondary oxidation products, which were detected in a UV-visible spectrophotometer (Cary 50Bio, Varian, Australia) at 532 nm. The relative degree of oxidation in each emulsion was calculated with respect to the degree of oxidation in emulsions with commercial DATEM, according to Equation (3), where AS is the absorbance of samples with added stabilizer, and A0 is the absorbance of samples with no added emulsifier. Measurements were taken on duplicate emulsion samples.2 Oxidation(%)=AS/AO×100

[3] = Temp-ramp FT-IR determination of lateral lipid chain packing; assay type: physicochemical; details: FT-IR CH2 rocking region, 28 °C
Method: Fourier transform infrared spectroscopy (FT-IR) was applied to determine the molecular organization of the amphiphilic lipids. Spectra were recorded using an ATR-FTIR (PIKE, Madison, WI; Bruker, Ettlingen, Germany). The synthesized compounds were dried under low pressure over night, and then pressed onto a ZnSe ATR crystal mounted in a trough plate. […] Spectra were collected with a spectral resolution of 4 cm^−1 with 8 scans over the range of 3500–650 cm^−1. The FTIR spectra were analyzed by using MicroCal Origin 9.0 software.

[4] = Critical micelle concentration by pyrene fluorescence method; assay type: physicochemical; details: in water
Method: Critical Micelle Concentration (CMC) values of the synthetic compounds were determined by pyrene fluorescence method[28] using a Varian Cary Eclipse Fluorescence spectrometer (Agilent Technology, California, USA). The respective solutions were prepared using water previously saturated with pyrene (1 µM final concentration) in different concentrations (0.000001, 0.00001, 0.0001, 0.001, 0.01, 0.1, 1, 2.5, 5, 10, 15, 20 mM). Emission spectra of pyrene were obtained by exciting the samples at 334 nm. The fluorescence intensity ratio of I1/I3 (I1 = 373 nm, I3 = 383 nm) was plotted against sample solution concentration. The concentration at which the first break occurs was referred as the CMC value of the compound in water. Measurements were determined in triplicate.

[5] = Langmuir isotherm of monolayer; assay type: physicochemical; details: aqueous subphase, neutral pH
Method: (§2) Langmuir-Blodgett studies was carried out for compound C14, being the ultimate compound with both surface active and antioxidant properties, according to the method of Correa et al.[29] with slight modications. Experiments were performed in aqueous solutions at neutral pH. Briefly, 20 µl of 2 mg/mL solution of C14 in chloroform:methanol (9:1, v/v) was applied to the aqueous phase and allowed to evaporate for a period of 20 min. Thereafter, the barriers were compressed at a constant rate of ~9 Å/ (chain min) until film collapsed. After stable conditions were attained, deposition of the corresponding film was carried out onto a hydrophilic mica support at a pressure just before film collapsed. The deposited monolayers on mica were left to air dry overnight. AFM images were acquired at ambient conditions by air tapping mode using a silicon tip on a micro cantilever (Olympus Inc., Japan) with a spring constant of 26 N/m and resonant frequency of 300 kHz. All measurements were performed in the center of the sample. Analyses were done in duplicates.

[6] = Atomic force microscopy of Langmuir-Blodgett films on mica; assay type: physicochemical; details: film transferred to mica at ~22 mN/m
Method: as §2

Compound | Creaming index (CI) [1] | Relative oxidation in emulsions (as TBARS) [2] | Lipid packing mode [3] | Critical micelle concentration (CMC) [4] | melting point | Surface pressure at monolayer collapse [5] | Double-layer film thickness [6] | Monolayer film thickness [6]
CCCCCCCCCCCCCC(=O)OCC(O)COC(=O)C(CC(=O)O)OC(=O)/C=C/c1ccc(O)c(O)c1 (stereo not shown) [C14a] | 0% | 19.26 ± 0.05% | Hexagonal |  |  |  |  | 
CCCCCCCCCCCCCCCC(=O)OCC(O)COC(=O)C(CC(=O)O)OC(=O)/C=C/c1ccc(OC)c(OC)c1 (stereo not shown) [C16] | 0% |  | Hexagonal |  |  |  |  | 
CCCCCCCCCCCCCCCCCC(=O)OCC(O)COC(=O)C(CC(=O)O)OC(=O)/C=C/c1ccc(OC)c(OC)c1 (stereo not shown) [C18] | 37.2% |  | Orthorhombic | 0.01 mM | 38 °C |  |  | 
CCCCCCCCCC(=O)OCC(O)COC(=O)C(CC(=O)O)OC(=O)/C=C/c1ccc(OC)c(OC)c1 (stereo not shown) [C10] | 10.35% |  | Hexagonal | 5 mM |  |  |  | 
CCCCCCCCCCCCCC(=O)OCC(O)COC(=O)C(CC(=O)O)OC(=O)/C=C/c1ccc(OC)c(OC)c1 (stereo not shown) [C14] | 0% |  | Hexagonal |  |  | 39 mN/m | 5.2 nm and 6.7 nm | 2.3 nm
CCCCCCCCCCCC(=O)OCC(O)COC(=O)C(CC(=O)O)OC(=O)/C=C/c1ccc(O)c(O)c1 (stereo not shown) [C12a] | 0% | 25.72 ± 0.03% | Hexagonal |  |  |  |  | 
CCCCCCCCCCCC(=O)OCC(O)COC(=O)C(CC(=O)O)OC(=O)/C=C/c1ccc(OC)c(OC)c1 (stereo not shown) [C12] | 0% |  | Hexagonal |  |  |  |  | 
CCCCCCCCCCCCCCCC(=O)OCC(O)COC(=O)C(CC(=O)O)OC(=O)/C=C/c1ccc(O)c(O)c1 (stereo not shown) [C16a] | 0% | 39.04 ± 0.02% | Hexagonal |  |  |  |  | 
CCCCCCCC(=O)OCC(O)COC(=O)C(CC(=O)O)OC(=O)/C=C/c1ccc(OC)c(OC)c1 (stereo not shown) [C8] | 15.1% |  | Hexagonal | 10 mM |  |  |  | 
